# Assay results reported in ChEMBL document CHEMBL3045895 (Med Chem Res, 2012).
# Active and inactive are the calls of the source. The calls are words filed in the database; no cut-off is given here.
# Experiments:
# Cholinesterase [1] = molecular target: T1, Cholinesterase (Homo sapiens, UniProt P06276); experiment: Inhibition of butyrylcholinesterase (unknown origin) using butyrylthiocholine chloride as substrate at 500 uM incubated for 15 min prior to substrate addition measured for 15 min by spectrophotometric analysis
# [2] = molecular target: Acetylcholinesterase (Homo sapiens) (UniProt P22303); experiment: Inhibition of acetylcholinesterase (unknown origin) using acetylthiocholine iodide as substrate at 500 uM incubated for 15 min prior to substrate addition measured for 15 min by spectrophotometric analysis
# Beta-glucuronidase = molecular target: T2, Beta-glucuronidase (Homo sapiens, UniProt P08236); experiment: Inhibition of beta-glucuronidase (unknown origin) using p-nitrophenyl-beta-D-glucuronide as substrate incubated for 30 min prior to substrate addition by spectrophotometric analysis
# T2 sequence (P08236 whole entry): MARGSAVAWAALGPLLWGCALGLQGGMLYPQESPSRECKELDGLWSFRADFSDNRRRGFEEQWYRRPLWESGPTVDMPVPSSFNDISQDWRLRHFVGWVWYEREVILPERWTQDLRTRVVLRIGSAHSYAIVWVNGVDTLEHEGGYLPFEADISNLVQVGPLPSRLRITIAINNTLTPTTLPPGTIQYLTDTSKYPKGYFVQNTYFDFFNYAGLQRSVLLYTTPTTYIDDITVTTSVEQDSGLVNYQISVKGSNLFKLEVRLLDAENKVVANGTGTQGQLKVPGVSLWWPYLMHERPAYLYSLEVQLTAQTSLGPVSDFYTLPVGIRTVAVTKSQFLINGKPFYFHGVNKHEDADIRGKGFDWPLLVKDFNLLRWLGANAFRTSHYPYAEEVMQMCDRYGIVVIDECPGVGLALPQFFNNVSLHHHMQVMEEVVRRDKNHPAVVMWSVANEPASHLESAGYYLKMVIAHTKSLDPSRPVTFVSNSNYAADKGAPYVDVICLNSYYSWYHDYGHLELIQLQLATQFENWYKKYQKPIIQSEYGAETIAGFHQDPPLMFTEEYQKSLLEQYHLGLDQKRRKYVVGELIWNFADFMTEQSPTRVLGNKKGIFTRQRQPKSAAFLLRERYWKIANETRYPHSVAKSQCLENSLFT
# Urease = Urease (Canavalia ensiformis, UniProt P07374); experiment: Inhibition of Canavalia ensiformis (jack bean) urease using urea as substrate after 15 min by indophenol-based spectrophotometric analysis
# Homo sapiens = organism: Homo sapiens; experiment: Inhibition of alpha-chymotrypsin (unknown origin) using N-succinyl-phenylalanine-p-nitroanilide as substrate at 500 uM incubated for 25 min prior to substrate by spectrophotometric analysis
# [3] = molecular target: T3, Beta-glucuronidase (Homo sapiens) (UniProt P08236); experiment: Inhibition of beta-glucuronidase (unknown origin) using p-nitrophenyl-beta-D-glucuronide as substrate at 500 uM incubated for 30 min prior to substrate addition by spectrophotometric analysis
# T3 sequence (whole entry): T2 sequence (P08236 whole entry)
# [4] = molecular target: Urease (Canavalia ensiformis) (UniProt P07374); experiment: Inhibition of Canavalia ensiformis (jack bean) urease using urea as substrate at 500 uM after 15 min by indophenol-based spectrophotometric analysis
# Cholinesterase [5] = molecular target: T1, Cholinesterase; experiment: Inhibition of butyrylcholinesterase (unknown origin) using butyrylthiocholine chloride as substrate incubated for 15 min prior to substrate addition measured for 15 min by spectrophotometric analysis
# Sequence of Acetylcholinesterase (Homo sapiens) (P22303 whole entry): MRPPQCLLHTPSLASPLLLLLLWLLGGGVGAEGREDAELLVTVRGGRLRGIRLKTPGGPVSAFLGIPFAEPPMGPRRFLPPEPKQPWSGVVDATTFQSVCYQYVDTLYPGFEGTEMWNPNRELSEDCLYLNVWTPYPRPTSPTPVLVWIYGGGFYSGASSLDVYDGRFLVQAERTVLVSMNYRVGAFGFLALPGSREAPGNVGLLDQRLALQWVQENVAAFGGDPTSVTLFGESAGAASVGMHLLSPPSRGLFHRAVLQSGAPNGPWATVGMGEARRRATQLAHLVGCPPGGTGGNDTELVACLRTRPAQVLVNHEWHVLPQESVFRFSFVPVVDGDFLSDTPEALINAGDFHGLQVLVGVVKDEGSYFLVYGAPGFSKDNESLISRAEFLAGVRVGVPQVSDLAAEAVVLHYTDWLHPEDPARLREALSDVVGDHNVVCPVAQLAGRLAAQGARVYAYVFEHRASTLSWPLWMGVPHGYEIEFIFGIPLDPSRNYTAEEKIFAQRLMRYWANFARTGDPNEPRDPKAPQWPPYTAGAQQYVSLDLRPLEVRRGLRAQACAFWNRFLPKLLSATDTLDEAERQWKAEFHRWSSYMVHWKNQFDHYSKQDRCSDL
# T1 sequence (P06276 whole entry): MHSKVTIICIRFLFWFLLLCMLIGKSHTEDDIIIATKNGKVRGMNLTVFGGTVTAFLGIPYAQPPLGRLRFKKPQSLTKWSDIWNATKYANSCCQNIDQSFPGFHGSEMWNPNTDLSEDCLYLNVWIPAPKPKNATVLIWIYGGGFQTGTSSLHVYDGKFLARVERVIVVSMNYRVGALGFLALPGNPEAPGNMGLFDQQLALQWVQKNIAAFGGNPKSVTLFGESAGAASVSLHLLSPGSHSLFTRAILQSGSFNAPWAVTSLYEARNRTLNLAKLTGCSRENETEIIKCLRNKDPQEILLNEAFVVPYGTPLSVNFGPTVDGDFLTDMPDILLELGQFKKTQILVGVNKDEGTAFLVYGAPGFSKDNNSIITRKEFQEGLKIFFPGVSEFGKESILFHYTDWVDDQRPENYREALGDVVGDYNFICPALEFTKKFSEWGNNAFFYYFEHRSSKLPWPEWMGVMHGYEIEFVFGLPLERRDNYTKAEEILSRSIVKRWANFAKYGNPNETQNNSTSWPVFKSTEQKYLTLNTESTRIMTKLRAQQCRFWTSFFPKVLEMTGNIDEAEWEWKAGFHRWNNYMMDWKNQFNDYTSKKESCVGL
# Sequence of Urease (P07374 whole entry): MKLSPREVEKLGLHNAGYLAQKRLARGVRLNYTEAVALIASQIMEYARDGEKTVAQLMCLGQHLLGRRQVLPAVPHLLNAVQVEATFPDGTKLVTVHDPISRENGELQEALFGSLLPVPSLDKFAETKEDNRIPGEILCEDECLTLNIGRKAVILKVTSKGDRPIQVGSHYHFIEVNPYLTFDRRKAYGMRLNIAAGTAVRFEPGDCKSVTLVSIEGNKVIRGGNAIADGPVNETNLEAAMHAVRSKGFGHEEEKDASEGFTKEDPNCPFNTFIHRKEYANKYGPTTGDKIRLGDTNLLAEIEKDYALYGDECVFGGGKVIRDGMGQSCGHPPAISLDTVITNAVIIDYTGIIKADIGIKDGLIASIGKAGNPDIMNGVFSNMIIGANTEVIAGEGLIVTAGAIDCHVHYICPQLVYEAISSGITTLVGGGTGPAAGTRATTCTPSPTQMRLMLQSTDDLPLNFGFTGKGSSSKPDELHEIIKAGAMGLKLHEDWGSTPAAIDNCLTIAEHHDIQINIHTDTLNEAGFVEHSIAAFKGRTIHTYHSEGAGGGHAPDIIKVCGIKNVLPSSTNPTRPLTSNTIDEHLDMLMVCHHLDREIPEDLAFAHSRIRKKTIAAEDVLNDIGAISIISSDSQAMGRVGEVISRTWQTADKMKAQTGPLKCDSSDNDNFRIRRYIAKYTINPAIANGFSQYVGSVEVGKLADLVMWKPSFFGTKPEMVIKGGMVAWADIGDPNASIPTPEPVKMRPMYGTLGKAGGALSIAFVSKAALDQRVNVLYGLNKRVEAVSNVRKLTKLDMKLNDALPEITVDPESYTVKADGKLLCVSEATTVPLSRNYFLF
# Sequence of Urease (Canavalia ensiformis) (P07374 whole entry, looked up): as the sequence (P07374 whole entry) above
SMILES,inhibition (Cholinesterase [1]),inhibition [2],IC50 (Beta-glucuronidase) [µM],IC50 (Urease) [µM],inhibition (Homo sapiens),inhibition [3],inhibition [4],IC50 (Cholinesterase [5]) [µM]
Cc1cc(C)n(CN(Cn2nc(C)cc2C)C2CCCCC2)n1,inactive,inactive,457,43.5,inactive,–,–,–
Cc1cc(CN(CCO)Cc2cc(C)n(C)n2)nn1C,–,inactive,–,–,inactive,inactive,inactive,68
Cc1cc(C)n(CO)n1,inactive,inactive,–,94.3,inactive,inactive,–,–
Cc1cc(C)n(CN(CCO)Cn2nc(C)cc2C)n1,inactive,inactive,–,44.7,inactive,inactive,–,–
